Measurements taken from DBAASP.
≈ marks a conversion by molar mass, not a printed value. One block for each compound: values may come before it.

What was measured:
Test in all cases: ≥ marks a high value that may be exact or a test limit, other limits are often not marked, values filed in µg/mL are converted to µM
[1] = system: Pseudomonas aeruginosa ATCC 27853
[2] = system: Candida parapsilosis ATCC 22019
[3] = system: Candida albicans ATCC 90028
[4] = system: Enterococcus faecium ATCC 19434
[5] = system: Trichosporon beigelii KCTC 7707
[6] = system: Escherichia coli O157:H7 ATCC 43895
Pseudomonas aeruginosa 2 = system: Pseudomonas aeruginosa 2
Staphylococcus aureus = system: Staphylococcus aureus
[7] = system: Staphylococcus aureus ATCC 25923
Pseudomonas aeruginosa 1 = system: Pseudomonas aeruginosa 1
[8] = system: Salmonella typhimurium ATCC 19430
[9] = system: Trichophyton rubrum KCTC 6345
[10] = system: Enterococcus faecalis ATCC 29212
[11] = system: Escherichia coli ATCC 32218
[12] = system: Staphylococcus aureus ATCC 29213
Escherichia coli AB94012 = system: Escherichia coli AB94012
[13] = system: Pseudomonas aeruginosa ATCC 9027
[14] = system: Staphylococcus aureus ATCC 6538
[15] = system: Staphylococcus aureus AB94004
[16] = system: Staphylococcus aureus P1374
[17] = system: Pseudomonas aeruginosa AB93066
[18] = system: Escherichia coli ATCC 25922
[19] = system: Staphylococcus aureus P1381
[20] = system: Candida albicans KCCM 11282
[21] = system: Saccharomyces cerevisiae KCCM 11293
Edwardsiella tarda = system: Edwardsiella tarda
Escherichia coli = system: Escherichia coli
Streptococcus iniae = system: Streptococcus iniae
Miamiensis avidus = system: Miamiensis avidus
[22] = system: Vibrio tapetis KCTC 12728
[23] = system: Trichophyton mentagrophytes
[24] = system: Escherichia coli ATCC 8739
Trichophyton rubrum = system: Trichophyton rubrum
[25] = system: Bacillus subtilis CCT 2576
[26] = system: Pseudomonas aeruginosa ATCC 15422
[27] = system: Acinetobacter baumannii ATCC BAA-1605
[28] = system: Enterococcus faecium ATCC 700221
[29] = system: Staphylococcus epidermidis ATCC 12228
[30] = system: Acinetobacter baumannii ATCC 19606
[31] = system: Staphylococcus aureus ATCC 9144
[32] = system: Klebsiella aerogenes ATCC 13048
[33] = system: Staphylococcus aureus ATCC 12598
[34] = system: Klebsiella pneumoniae ATCC 700603
[35] = system: Staphylococcus aureus ATCC 33591
[36] = system: Klebsiella pneumoniae ATCC 13883

- MIC [1]: 12.5 µM (≈ 22.3 µg/mL)
- MIC [2]: 12.5 µM (≈ 22.3 µg/mL)
- MIC [3]: 6.3 µM (≈ 11.2 µg/mL)
- MIC [4]: 12.5 µM (≈ 22.3 µg/mL)
- MIC [5]: 6.3 µM (≈ 11.2 µg/mL)
- MIC [6]: 6.3 µM (≈ 11.2 µg/mL)
- MIC (Pseudomonas aeruginosa 2): 12.5 µM (≈ 22.3 µg/mL)
- MIC (Staphylococcus aureus): 12.5 µM (≈ 22.3 µg/mL)
- MIC [7]: 25 µM (≈ 44.5 µg/mL)
- MIC (Pseudomonas aeruginosa 1): 6.3 µM (≈ 11.2 µg/mL)
- MIC [8]: 12.5 µM (≈ 22.3 µg/mL)
- MIC [9]: 6.3 µM (≈ 11.2 µg/mL)
SMILES: CC[C@H](C)[C@H](NC(=O)[C@H](CCCN=C(N)N)NC(=O)CNC(=O)[C@@H](NC(=O)[C@@H]1CCCN1C(=O)[C@H](Cc1ccccc1)NC(=O)[C@H](CCC(N)=O)NC(=O)[C@H](CC(C)C)NC(=O)CNC(=O)[C@H](C)N)C(C)C)C(=O)NCC(=O)N[C@@H](CCCN=C(N)N)C(=O)N[C@@H](CC(C)C)C(=O)N[C@@H](CC(C)C)C(=O)N[C@@H](CCCN=C(N)N)C(=O)N[C@@H](CCCCN)C(=O)O [AGLQFPVGRIGRLLRK]

- MIC [10]: 1.19 µM (≈ 2 µg/mL)
- MIC [11]: ≥ 35.6 µM
- MIC [12]: 0.594 µM (≈ 1 µg/mL)
SMILES: CC(C)C[C@H](NC(=O)[C@H](C)N)C(=O)N[C@@H](CCCCN)C(=O)N[C@@H](Cc1ccc(O)cc1)C(=O)N[C@@H](CCCN=C(N)N)C(=O)N[C@@H](CC(C)C)C(=O)N[C@@H](Cc1ccccc1)C(=O)N[C@@H](CCCCN)C(=O)N[C@@H](CCCCN)C(=O)N[C@@H](CC(C)C)C(=O)N[C@@H](CCCCN)C(=O)N[C@@H](CCCCN)C(=O)N[C@@H](Cc1ccccc1)C(=O)O [ALKYRLFKKLKKF]

- MIC (Escherichia coli AB94012): 15.3 µM (≈ 25 µg/mL)
- MIC [13]: 30.6 µM (≈ 50 µg/mL)
- MIC [14]: 3.82 µM (≈ 6.25 µg/mL)
- MIC [15]: 3.82 µM (≈ 6.25 µg/mL)
- MIC [16]: 7.64 µM (≈ 12.5 µg/mL)
- MIC [17]: 30.6 µM (≈ 50 µg/mL)
- MIC [18]: 30.6 µM (≈ 50 µg/mL)
- MIC [7]: 3.82 µM (≈ 6.25 µg/mL)
- MIC [19]: 7.64 µM (≈ 12.5 µg/mL)
SMILES: CC[C@H](C)[C@H](NC(=O)[C@H](CO)NC(=O)[C@H](CCCCN)NC(=O)[C@@H](NC(=O)CNC(=O)[C@H](CCCCN)NC(=O)[C@H](Cc1c[nH]c2ccccc12)NC(=O)[C@H](CC(C)C)NC(=O)[C@H](CCCCN)NC(=O)CNC(=O)[C@H](CC(C)C)NC(=O)[C@@H](NC(=O)[C@@H](N)Cc1ccccc1)[C@@H](C)CC)C(C)C)C(=O)N[C@@H](Cc1ccccc1)C(N)=O [FILGKLWKGVKSIF]

- MIC [20]: 22.5 µM (≈ 58 µg/mL)
- MIC [21]: 11.2 µM (≈ 29 µg/mL)
- MIC (Edwardsiella tarda): ≥ 90 µM
- MIC (Escherichia coli): 45 µM (≈ 116 µg/mL)
- MIC (Streptococcus iniae): ≥ 45 µM
- MIC (Miamiensis avidus): 0.4 µM (≈ 1.03 µg/mL)
- MIC [22]: 22.5 µM (≈ 58 µg/mL)
SMILES: CC[C@H](C)[C@H](NC(=O)[C@H](C)NC(=O)[C@H](Cc1cnc[nH]1)NC(=O)CNC(=O)[C@@H](NC(=O)CNC(=O)[C@H](Cc1cnc[nH]1)NC(=O)[C@H](CC(C)C)NC(=O)[C@H](CC(C)C)NC(=O)[C@H](CCSC)NC(=O)CNC(=O)[C@H](CC(C)C)NC(=O)[C@@H](N)Cc1ccccc1)C(C)C)C(=O)N[C@@H](Cc1cnc[nH]1)C(=O)NCC(=O)N[C@@H](CC(C)C)C(=O)N[C@H](C(=O)N[C@@H](Cc1cnc[nH]1)C(=O)NCC(=O)N[C@@H](CCCCN)C(=O)N[C@@H](CCC(N)=O)C(=O)N[C@@H](CC(N)=O)C(=O)N[C@H](C(=O)N[C@@H](CCC(=O)O)C(=O)O)C(C)C)[C@@H](C)CC [FLGMLLHGVGHAIHGLIHGKQNVE]

- MIC [23]: ≥ 115 µM
- MIC [24]: 30 µM (≈ 66.4 µg/mL)
- MIC [2]: ≥ 115 µM
- MIC (Trichophyton rubrum): ≥ 115 µM
- MIC [7]: > 115 µM
SMILES: CSCC[C@H](NC(=O)[C@H](CO)NC(=O)[C@H](C)NC(=O)[C@H](C)NC(=O)[C@H](C)NC(=O)[C@H](C)NC(=O)[C@H](C)NC(=O)[C@H](C)NC(=O)[C@H](C)NC(=O)[C@H](CC(N)=O)NC(=O)[C@H](C)NC(=O)[C@H](C)NC(=O)[C@@H](NC(=O)[C@H](CC(C)C)NC(=O)[C@H](C)NC(=O)[C@H](C)NC(=O)[C@H](C)NC(=O)[C@H](C)NC(=O)[C@H](C)NC(=O)[C@H](C)NC(=O)[C@H](CC(=O)O)NC(=O)[C@H](CO)NC(=O)[C@H](C)NC(=O)[C@@H](NC(=O)[C@@H](N)Cc1cnc[nH]1)[C@@H](C)O)[C@@H](C)O)C(=O)N[C@@H](C)C(=O)O [HTASDAAAAAALTAANAAAAAAASMA]

- MIC [25]: 2.16 µM (≈ 3.5 µg/mL)
- MIC [14]: 1.79 µM (≈ 2.9 µg/mL)
- MIC [18]: 2.41 µM (≈ 3.9 µg/mL)
- MIC [26]: 9.64 µM (≈ 15.6 µg/mL)
SMILES: CC[C@H](C)[C@H](N)C(=O)N[C@@H](CC(N)=O)C(=O)N[C@@H](Cc1c[nH]c2ccccc12)C(=O)N[C@@H](CCCCN)C(=O)N[C@@H](CCCCN)C(=O)N[C@@H](CCSC)C(=O)N[C@@H](C)C(=O)N[C@@H](C)C(=O)N[C@H](C(=O)N[C@@H](C)C(=O)N[C@@H](CC(C)C)C(=O)N[C@@H](CCCCN)C(=O)N[C@@H](CCSC)C(=O)N[C@H](C(N)=O)[C@@H](C)CC)[C@@H](C)O [INWKKMAATALKMI]

- MIC [13]: 40.7 µM (≈ 65.7 µg/mL)
- MIC [27]: ≥ 163 µM
- MIC [14]: 163 µM (≈ 263 µg/mL)
- MIC [28]: 10.2 µM (≈ 16.4 µg/mL)
- MIC [29]: ≥ 163 µM
- MIC [10]: ≥ 81.4 µM
- MIC [30]: ≥ 163 µM
- MIC [31]: ≥ 163 µM
- MIC [32]: ≥ 163 µM
- MIC [33]: ≥ 163 µM
- MIC [34]: 163 µM (≈ 263 µg/mL)
- MIC [35]: ≥ 163 µM
- MIC [36]: ≥ 163 µM
SMILES: CC[C@H](C)[C@H](NC(=O)[C@H](CCCN=C(N)N)NC(=O)[C@H](CCC(N)=O)NC(=O)[C@@H](NC(=O)[C@@H](NC(=O)[C@H](CCCN=C(N)N)NC(=O)[C@H](CCCCN)NC(C)=O)[C@@H](C)CC)C(C)C)C(=O)N[C@@H](CCCCN)C(=O)N[C@@H](CC(=O)O)C(=O)N[C@@H](Cc1ccccc1)C(=O)N[C@@H](CC(C)C)C(=O)N[C@@H](CCCN=C(N)N)C(N)=O [KRIVQRIKDFLR]
